Experimental data taken from patent US20040067915A1, “Method to treat cardiofibrosis with a combination of an angiotensin II antagonist and spironolactone” (G.D. Searle & Co., priority 1995, published 2004).

Biological target: T1, angiotensin II receptor (rabbit aortic rings) (Oryctolagus cuniculus, UniProt P34976)
T1 construct: The thoracic aorta was removed, cleaned of adherent fat and connective tissue and then cut into 3-mm ring segments; from tissue; host or cells: rabbit thoracic aorta rings, endothelium removed
T1 sequence (P34976 1-359): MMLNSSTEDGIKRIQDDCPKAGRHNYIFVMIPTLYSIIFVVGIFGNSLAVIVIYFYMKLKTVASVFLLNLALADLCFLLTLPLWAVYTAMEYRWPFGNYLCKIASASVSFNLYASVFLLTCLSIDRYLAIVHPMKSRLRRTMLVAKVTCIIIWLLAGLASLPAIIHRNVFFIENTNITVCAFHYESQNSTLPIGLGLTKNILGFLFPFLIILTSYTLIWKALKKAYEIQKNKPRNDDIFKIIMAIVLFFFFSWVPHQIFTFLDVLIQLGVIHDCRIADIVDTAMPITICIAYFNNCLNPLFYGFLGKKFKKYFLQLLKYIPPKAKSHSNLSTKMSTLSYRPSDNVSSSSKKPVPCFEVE
Experiment: Assay B: In vitro Vascular Smooth Muscle Response for AII (rabbit aortic rings, pA2)
Type: cell-based
Parameters: key to Assay B pA2 (NC = Non-Competitive antagonist): NC=Non-Competitive antagonist
Settings: not given
Procedure: Assay B: In vitro Vascular Smooth Muscle-response for AII
The compounds of the invention were tested for antagonist activity in rabbit aortic rings. Male New Zealand white rabbits (2-2.5 kg) were sacrificed using an overdose of pentobarbital and exsanguinated via the carotid arteries. The thoracic aorta was removed, cleaned of adherent fat and connective tissue and then cut into 3-mm ring segments. The endothelium was removed from the rings by gently sliding a rolled-up piece of filter paper into the vessel lumen. The rings were then mounted in a water-jacketed tissue bath, maintained at 37° C., between moveable and fixed ends of a stainless steel wire with the moveable end attached to an FT03 Grass transducer coupled to a Model 7D Grass Polygraph for recording isometric force responses. […] The preparations were equilibrated for one hour before approximately one gram of passive tension was placed on the rings. Angiotensin II concentration-response curves were then recorded (3×10^−10 to 1×10^−5 M). Each concentration of AII was allowed to elicit its maximal contraction, and then AII was washed out repeatedly for 30 minutes before rechallenging with a higher concentration of AII. Aorta rings were exposed to the test antagonist at 10^−5 M for 5 minutes before challenging with AII. Adjacent segments of the same aorta ring were used for all concentration-response curves in the presence or absence of the test antagonist. The effectiveness of the test compound was expressed in terms of pA2 values and were calculated according to H. O. Schild [Br. J. Pharmacol. Chemother., 2, 189-206 (1947)]. The pA2 value is […] which increases the EC50 value for AII by a factor of two. Each test antagonist was evaluated in aorta rings from two rabbits.
2Assay B: In vitro Vascular Smooth Muscle Response

Row | Assay B pA2 (NC = Non-Competitive antagonist) | Structure (SMILES)
1 | NC | CCCCc1cn(-c2ccccc2C(C)C)c(=O)n1Cc1ccc(-c2ccccc2-c2nnn[nH]2)cc1 [Compound 272]
2 | NC | CCCCc1cn([C@H]2[C@H](C)CCC[C@@H]2C)c(=O)n1Cc1ccc(-c2ccccc2-c2nnn[nH]2)nc1 [Compound 236]
3 | NC | CCCCc1cn(-c2ccccc2CC)c(=O)n1Cc1ccc(-c2ccccc2-c2nnn[nH]2)cc1 [Compound 271]

Same assay, conditions: two determinations given as a/b

Row | Structure (SMILES) | Kb [µM]
4 | CCCCc1nn(CCC(C)CC(C)(C)C)c(=O)n1Cc1ccc(-c2ccccc2-c2nn[nH]n2)cc1 (centres unmarked) [Compound 92] | 0.0126
5 | CCCCc1nn(CC(=O)OCC)c(=O)n1Cc1ccc(-c2ccccc2-c2nn[nH]n2)cc1 [Compound 86] | 0.0158
6 | CCCCn1nc(C(C#N)CCC)n(Cc2ccc(-c3ccccc3-c3nn[nH]n3)cc2)c1=O (centres unmarked) [Compound 106] | 0.02
7 | CCCCc1nc2c(O)nnc(O)c2n1Cc1ccc(-c2ccccc2C(=O)O)cc1 [Compound 109] | 0.0501
8 | CCCCc1nn(C(CC(=O)OCC)C(=O)c2ccccc2)c(=O)n1Cc1ccc(-c2ccccc2-c2nn[nH]n2)cc1 (centres unmarked) [Compound 101] | 0.0158
9 | CCCCc1nn(CCCc2ccccc2)c(=O)n1Cc1ccc(-c2ccccc2-c2nn[nH]n2)cc1 [Compound 81] | 0.01
10 | CCCCc1nc(Cc2ccc(-c3ccccc3C(=O)O)cc2)nn1CCCC [Compound 127] | 11
11 | CCCCc1cn(CCc2cccs2)c(=O)n1Cc1ccc(-c2ccccc2-c2nnn[nH]2)cc1 [Compound 134] | 0.000501
12 | CCCCc1nn(CC(O)c2ccccc2)c(=O)n1Cc1ccc(-c2ccccc2-c2nn[nH]n2)cc1 (centres unmarked) [Compound 83] | 0.00501
13 | CCCCc1nc(Cl)c(CO)n1Cc1ccc(-n2cccc2C(=O)O)cc1 [Compound 148] | 1.58
14 | CCCCc1nn(CC(=O)O)c(=O)n1Cc1ccc(-c2ccccc2-c2nn[nH]n2)cc1 [Compound 87] | 0.0158
15 | CCCCc1nn(C(=O)CCC)c(=O)n1Cc1ccc(-c2ccccc2-c2nn[nH]n2)cc1 [Compound 95] | 0.00631
16 | CCCCc1nc(C)n(Cc2ccc(-c3ccccc3C(=O)O)cc2)n1 [Compound 77] | 1.7
17 | CCCCc1nn(CC(OCC(=O)O)c2ccccc2)c(=O)n1Cc1ccc(-c2ccccc2-c2nn[nH]n2)cc1 (centres unmarked) [Compound 91] | 0.00251
18 | CCCCc1nn(CCC2CCCCC2)c(=O)n1Cc1ccc(-c2ccccc2-c2nn[nH]n2)cc1 [Compound 89] | 0.0126
19 | CCCCc1nn(CC(=O)OC(C)(C)C)c(=O)n1Cc1ccc(-c2ccccc2-c2nn[nH]n2)cc1 [Compound 84] | 0.0794
20 | CCCCc1nc2cnncc2n1Cc1ccc(-c2ccccc2C(=O)O)cc1 [Compound 108] | 5.01
21 | CCCCc1c(C)n(CCCC)c(=O)n1Cc1ccc(-c2ccccc2-c2nnn[nH]2)cc1 [Compound 137] | 0.00501
22 | CCCCc1cn(-c2ccccc2Cl)c(=O)n1Cc1ccc(-c2ccccc2-c2nnn[nH]2)cc1 [Compound 135] | 0.00316
23 | CCCCc1nn(CC(OCC(=O)OCC)c2ccccc2)c(=O)n1Cc1ccc(-c2ccccc2-c2nn[nH]n2)cc1 (centres unmarked) [Compound 107] | 0.00501
24 | CCCCc1nn(CC(=O)C23CC4CC(CC(C4)C2)C3)c(=O)n1Cc1ccc(-c2ccccc2-c2nn[nH]n2)cc1 [Compound 80] | 0.00794
25 | CCCCc1nc2c(O)nncc2n1Cc1ccc(-c2ccccc2-c2nnn[nH]2)cc1 [Compound 116] | 0.316
26 | CCCCc1nc(Cl)c(Cl)n1Cc1ccc(-n2cccc2C(=O)O)cc1 [Compound 147] | 2.51
27 | CCCCc1nn(CCCC)c(=O)n1Cc1ccc(-c2ccccc2C(=O)O)cc1 [Compound 78] | 0.1
28 | CCCCc1nc(Cc2ccc(-c3ccccc3-c3nnn[nH]3)cc2)nn1CCCC [Compound 129] | 5.01
29 | CCCCc1nn(CCCCC(=O)O)c(=O)n1Cc1ccc(-c2ccccc2-c2nn[nH]n2)cc1 [Compound 103] | 0.01
30 | CCCCc1nc2c(O)nnc(CCC)c2n1Cc1ccc(-c2ccccc2-c2nn[nH]n2)cc1 [Compound 114] | 0.398
31 | CCCCc1nn(CC(O)c2cc(OC)ccc2OC)c(=O)n1Cc1ccc(-c2ccccc2-c2nn[nH]n2)cc1 (centres unmarked) [Compound 98] | 0.00794

Further lines, results first:

Row | Kb [µM] | Structure (SMILES)
32 | 0.316 | CCCCc1nn(Cc2ccc3ccccc3c2)c(=O)n1Cc1ccc(-c2ccccc2-c2nn[nH]n2)cc1 [Compound 99]
33 | 0.00631 | CCCc1cn(CCC)c(=O)n1Cc1ccc(-c2ccccc2-c2nnn[nH]2)cc1 [Compound 138]
34 | 6.31 | CCCCc1nc2c(OCC)nnc(OCC)c2n1Cc1ccc(-c2ccccc2-c2nnn[nH]2)cc1 [Compound 112]
35 | 0.288 | CCCCc1cn(-c2c(C(C)C)cccc2C(C)C)c(=O)n1Cc1ccc(-c2ccccc2-c2nnn[nH]2)cc1 [Compound 277]
36 | 0.01 | CCCCc1nn(CC(=O)c2cc(OC)ccc2OC)c(=O)n1Cc1ccc(-c2ccccc2-c2nn[nH]n2)cc1 [Compound 96]
37 | 0.002 | CCCCc1cn(CCc2ccccc2)c(=O)n1Cc1ccc(-c2ccccc2-c2nnn[nH]2)cc1 [Compound 133]
38 | 0.000851 | CCCCc1cn(-c2c(C)cccc2C)c(=O)n1Cc1ccc(-c2ccccc2-c2nnn[nH]2)cc1 [Compound 275]
39 | 0.955 | CCCCc1ncn(Cc2ccc(-c3ccccc3-c3nnn[nH]3)cc2)n1 [Compound 54]
40 | 0.00398 | CCCCc1nc2c(CCC)nnc(O)c2n1Cc1ccc(-c2ccccc2-c2nnn[nH]2)cc1 [Compound 113]
41 | 0.001 | CCCCCn1nc(CCCC)n(Cc2ccc(-c3ccccc3-c3nn[nH]n3)cc2)c1=O [Compound 90]
42 | 0.02 | CCCCc1nn(C(C)(C)C(=O)c2ccccc2)c(=O)n1Cc1ccc(-c2ccccc2-c2nn[nH]n2)cc1 [Compound 102]
43 | 0.398 | CCCCc1nc2c(Cl)nnc(Cl)c2n1Cc1ccc(-c2ccccc2-c2nnn[nH]2)cc1 [Compound 110]
44 | 1 | CCCCc1nc(CCCC2CCCCC2)n(Cc2ccc(-c3ccccc3-c3nnn[nH]3)cc2)n1 [Compound 57]
45 | 0.00126 | CCCCCCn1nc(CCCC)n(Cc2ccc(-c3ccccc3-c3nn[nH]n3)cc2)c1=O [Compound 85]
46 | 0.02 | CCCCc1nn(CC(OCc2ccccc2)c2ccccc2)c(=O)n1Cc1ccc(-c2ccccc2-c2nn[nH]n2)cc1 (centres unmarked) [Compound 97]

Tested on: pressor response to AII
Experiment: Assay C: In vivo Intragastric Pressor Assay Response for AII Antagonists
Settings: dose 3 mg/kg, rat
Procedure: Assay C: In vivo Intragastric Pressor Assay Response for All Antagonists
Male Sprague-Dawley rats weighing 225-300 grams were anesthetized with methohexital (30 mg/kg, i.p.) and catheters were implanted into the femoral artery and vein. The catheters were tunneled subcutaneously to exit dorsally, posterior to the head and between the scapulae. The catheters were filled with heparin (1000 units/ml of saline). The rats were returned to their cage and allowed regular rat chow and water ad libitum. After full recovery from surgery (3-4 days), rats were placed in Lucite holders and the arterial line was connected to a pressure transducer. Arterial pressure was recorded on a Gould polygraph (mmHg). Angiotensin II was administered as a 30 ng/kg bolus via the venous catheter delivered in a 50 μl volume with a 0.2 ml saline flush. The pressor response in mm Hg was measured by the difference from pre-injection arterial pressure to the maximum pressure achieved. The AII injection was repeated every 10 minutes until three consecutive injections yielded responses within 4 mmHg of each other. These three responses were then averaged and represented the control response to AII. The test compound was suspended in 0.5% methylcellulose in water and was administered by gavage. The volume administered was 2 ml/kg body weight. The standard dose was 3 mg/kg. Angiotensin II bolus injections were given at 30, 45, 60, 75, 120, 150, and 180 minutes after gavage. The pressor response to AII was measured at each time point. The rats were then returned to their cage for future testing. A minimum of 3 days was allowed between tests. Percent inhibition was calculated for each time point following gavage by the following formula: [(Control Response—Response at time point)/Control Response]×100.
3Assay C: In vivo Pressor Response

Row | Structure (SMILES) | Assay C Duration [min]
47 | CCCCc1nc2c(OC(C)=O)nnc(OC(C)=O)c2n1Cc1ccc(-c2ccccc2-c2nnn[nH]2)cc1 [Compound 125] | >240
48 | CCCCc1nc2cnncc2n1Cc1ccc(-c2ccccc2-c2nnn[nH]2)cc1 [Compound 115] | >240

Same assay, conditions: po, dose 3 mg/kg, rat, AII pressor response

Row | Structure (SMILES) | inhibition at 3 mg/kg [%]
49 | CCCCc1nc2c(OC(C)=O)nnc(OC(C)=O)c2n1Cc1ccc(-c2ccccc2-c2nnn[nH]2)cc1 [Compound 125] | 35
50 | CCCCc1nc2cnncc2n1Cc1ccc(-c2ccccc2-c2nnn[nH]2)cc1 [Compound 115] | 40
